According to ChEMBL document CHEMBL1151713, “S-alkenyl cysteine sulfoxide and its antioxidant properties from Allium cepa var. tropeana (red onion) seeds” (J Nat Prod, 2008):

Columns and labels:
[1] = Antioxidant activity by ferric reducing antioxidant power assay; type: functional
[2] = test system: Radical scavenging activity; assay: Antioxidant activity assessed as DPPH radical scavenging activity by Brand-Williams method; type: functional

Work on `Cc1cc(C(C)(C)C)c(O)c(C(C)(C)C)c1` yielded an Activity [1] of 677 µM and an Activity [2] of 637 µM.

Compound `C/C=C/CC[S+]([O-])C[C@@H](N)C(=O)O` (stereo partly specified) has an Activity [1] of 178 µM and an Activity [2] of 107 µM.

With `O=C1O[C@H]([C@@H](O)CO)C(O)=C1O` the Activity [1] was 824 µM and the Activity [2] was 903 µM.
